The results in this text go back to article doi:10.1101/2021.10.07.463234v2 (biorxiv, 2021).

Counter-ions that a name gives are not always drawn.

The first experiment deals with SARS-CoV-2 Mac1 (Severe acute respiratory syndrome coronavirus 2, UniProt P0DTD1). Kind of experiment: biochemical. Particulars: 100 µM; inhibitor.
The %inhibition is the percentage by which the read-out fell short of the control. Low values mean a weak effect, high ones a strong effect. For the compound `Cc1cn([C@H]2C[C@H](N=[N+]=[N-])[C@@H](CO)O2)c(=O)[nH]c1=O` [Zidovudine], the “%inhibition” value is 8.703%.

Regarding `Cc1cc(C(C#N)c2ccc(Cl)cc2)c(Cl)cc1NC(=O)c1cc(I)cc(I)c1O` (stereo not shown) [Closantel], the “%inhibition” value was determined as 12.2%.

With `CCN1CC(CCN2CCOCC2)C(c2ccccc2)(c2ccccc2)C1=O` (stereo not shown) [Doxapram HCl], the “%inhibition” value was determined as 9.802%.

On to `CNC(=O)c1cc(Oc2ccc(NC(=O)Nc3ccc(Cl)c(C(F)(F)F)c3)c(F)c2)ccn1` [Regorafenib Monohydrate], for which the “%inhibition” value amounted to 0%.

`CC1=C(C(=O)O)N2C(=O)[C@@H](NC(=O)[C@H](N)C3=CCC=CC3)[C@H]2SC1` [Cephradine monohydrate]: the “%inhibition” value came out at 0%.

In the case of `CO/N=C(\C(=O)N[C@@H]1C(=O)N2C(C(=O)O)=C(CSC(=O)c3ccco3)CS[C@H]12)c1csc(N)n1` [Ceftiofur], the “%inhibition” value amounted to 0%.

As to `NC(=O)c1cccc2cn(-c3ccc([C@@H]4CCCNC4)cc3)nc12` [Niraparib (MK-4827) tosylate], the “%inhibition” value worked out at 14.33%.

Turning to `Cc1cc(C)nc(NS(=O)(=O)c2ccc(N)cc2)n1` [Sulfamethazine], the “%inhibition” value amounted to 0%.

In the case of `CCC[C@@H]1C[C@@H](C(=O)N[C@@H]([C@H]2O[C@H](SC)[C@H](O)[C@@H](O)[C@H]2O)[C@@H](C)O)N(C)C1` [Lincomycin Hydrochloride Monohydrate], the “%inhibition” value was determined as 16.9%.

Turning to `CC(C)(C)c1nc(-c2cccc(NS(=O)(=O)c3c(F)cccc3F)c2F)c(-c2ccnc(N)n2)s1` [Dabrafenib (GSK2118436)], the “%inhibition” value is 34.76%.

On to `CCCCCCNC(=O)n1cc(F)c(=O)[nH]c1=O` [Carmofur], for which the “%inhibition” value turned out to be 16.37%.

As for `N#CC[C@H](C1CCCC1)n1cc(-c2ncnc3[nH]ccc23)cn1` [Ruxolitinib (INCB018424)], the “%inhibition” value was 0%.

For the compound `C[C@H](NCc1ccc(OCc2cccc(F)c2)cc1)C(N)=O` [Safinamide Mesylate], the “%inhibition” value amounted to 9.23%.

With `Cc1ccc(Sc2ccccc2N2CCNCC2)c(C)c1` [Vortioxetine (Lu AA21004) HBr], the “%inhibition” value is 12.23%.

The same experiment, now with this note: read-out: %inhibition.
Usually inhibition stands for the drop in the measured response relative to a control, in per cent. With `Cn1cc(C(=O)[C@@H]2CCc3[nH]cnc3C2)c2ccccc21` [Ramosetron Hydrochloride], the inhibition at 100 µM worked out at 0%.

For `Cc1cc(=O)[nH]c(=S)[nH]1` [Methylthiouracil], the inhibition at 100 µM is 0%.

Take `CCOC(=O)C1=C[C@]2(CC)CCCN3CCc4c(n1c1ccccc41)[C@@H]32` [Vinpocetine]: the inhibition at 100 µM came out at 1.15%.

As to `c1ccc2[nH]c(-c3cscn3)nc2c1` [Thiabendazole], the inhibition at 100 µM came to 21.5%.

On to `Nc1[nH]cnc2ncnc1-2` [Adenine HCl], for which the inhibition at 100 µM was found to be 9.72%.

Regarding `NCCc1cc(O)c(O)cc1O` [Oxidopamine (hydrobromide)], the inhibition at 100 µM is 0%.

With `CN(C)CCOC(=O)COc1ccc(Cl)cc1` [Meclofenoxate (Centrophenoxine) HCl], the inhibition at 100 µM was 16.9%.

In the case of `N=C(N)NC(=N)N1CCOCC1` [Moroxydine HCl], the inhibition at 100 µM amounted to 0.197%.

With `COc1ccc(NS(=O)(=O)c2ccc(N)cc2)nn1` [Sulfamethoxypyridazine], the inhibition at 100 µM came out at 4.31%.

Take `C[C@@H]1O[C@@H](OC[C@H]2O[C@@H](Oc3c(-c4ccc(O)c(O)c4)oc4cc(O)cc(O)c4c3=O)[C@H](O)[C@@H](O)[C@@H]2O)[C@H](O)[C@H](O)[C@H]1O` [Rutin]: the inhibition at 100 µM was 3.42%.

As to `COc1ccc(C(=O)NCc2ccc(OCCN(C)C)cc2)cc1OC` [Itopride hydrochloride], the inhibition at 100 µM is 0%.

With `Cc1ccc(F)c(NC(=O)Nc2ccc(-c3cccc4[nH]nc(N)c34)cc2)c1` [Linifanib (ABT-869)], the inhibition at 100 µM turned out to be 52.3%.

On to `N[C@@H](Cc1c[nH]c2ccc(O)cc12)C(=O)O` [5-hydroxytryptophan (5-HTP)], for which the inhibition at 100 µM is 0%.

For `CC(C)c1cccc(C(C)C)c1O` [Propofol], the inhibition at 100 µM was found to be 19.3%.

In the case of `O=C(O)c1cc(=O)c2ccccc2o1` [Chromocarb], the inhibition at 100 µM was 21.6%.

For `NC(=O)N/N=C/c1ccc([N+](=O)[O-])o1` [Nitrofural], the inhibition at 100 µM came out at 0%.

Take `Clc1ccccc1CN1CCc2sccc2C1` [Ticlopidine HCl]: the inhibition at 100 µM turned out to be 0.00536%.

As to `CC(C)(C)C#Cc1cc(N(C(=O)[C@H]2CC[C@H](C)CC2)[C@H]2CC[C@H](O)CC2)c(C(=O)O)s1` [Lomibuvir (VX-222, VCH-222)], the inhibition at 100 µM stood at 2.87%.

For the compound `CO[C@H]1/C=C/O[C@@]2(C)Oc3c(C)c(O)c4c(O)c(c5c(nc6cc(C)ccn65)c4c3C2=O)NC(=O)/C(C)=C\C=C\[C@H](C)[C@H](O)[C@@H](C)[C@@H](O)[C@@H](C)[C@H](OC(C)=O)[C@@H]1C` [Rifaximin], the inhibition at 100 µM stood at 22.3%.

`CN1CC(O)C2=C/C(=N/NC(N)=O)C(=O)C=C21` (stereo not shown) [Carbazochrome]: the inhibition at 100 µM was found to be 10.9%.

On to `CCOC(=O)[C@H](CCc1ccccc1)N[C@@H](C)C(=O)N1Cc2ccccc2C[C@H]1C(=O)O` [Quinapril HCl], for which the inhibition at 100 µM came to 25%.

As for `C[C@H](NC(=O)C(=O)Nc1ccccc1C(C)(C)C)C(=O)N[C@@H](CC(=O)O)C(=O)COc1c(F)c(F)cc(F)c1F` [Emricasan], the inhibition at 100 µM turned out to be 21%.

As for `Nc1cc(N2CCCCC2)nc(N)[n+]1OS(=O)(=O)[O-]` [Minoxidil sulphate], the inhibition at 100 µM is 19%.

With `Cn1cnc([N+](=O)[O-])c1Sc1ncnc2[nH]cnc12` [Azathioprine], the inhibition at 100 µM worked out at 18.9%.

`Nc1c(CC(=O)O)cccc1C(=O)c1ccccc1` [Amfenac Sodium Monohydrate]: the inhibition at 100 µM turned out to be 4.46%.

For `Oc1cccc(O)c1` [Resorcinol], the inhibition at 100 µM was 0%.

Take `CCCCCCC(=O)O[C@H]1CC[C@H]2[C@@H]3CCC4=CC(=O)CC[C@]4(C)[C@H]3CC[C@]12C` [Testosterone Enanthate]: the inhibition at 100 µM amounted to 0%.

With `O=C(O)c1cc(-c2ccccc2)nc2ccccc12` [Cinchophen], the inhibition at 100 µM turned out to be 17.7%.

As for `COC(=O)N(C)c1c(N)nc(-c2nn(Cc3ccccc3F)c3ncccc23)nc1N` [Riociguat (BAY 63-2521)], the inhibition at 100 µM came to 21.9%.

For `O=C(O)CSc1nnc(Br)n1-c1ccc(C2CC2)c2ccccc12` [Lesinurad], the inhibition at 100 µM came to 2.49%.

As for `CN1C(CCl)Nc2cc(Cl)c(S(N)(=O)=O)cc2S1(=O)=O` (stereo not shown) [Methyclothiazide], the inhibition at 100 µM amounted to 0%.

With `CC(CN1c2ccccc2Sc2ccccc21)N(C)C` (stereo not shown) [Promethazine HCl], the inhibition at 100 µM stood at 0%.

Consider `Cc1ccc(-n2nc(C(C)(C)C)cc2NC(=O)NCc2cc(F)ccc2Oc2ccc3c(cnn3CCO)c2)cc1` [Pexmetinib (ARRY-614)], for which the inhibition at 100 µM was 0.769%.

With `Cc1c(N)nc([C@H](CC(N)=O)NC[C@H](N)C(N)=O)nc1C(=O)N[C@H](C(=O)N[C@H](C)[C@@H](O)[C@H](C)C(=O)N[C@H](C(=O)NCCc1nc(-c2nc(C(=O)NCCC[S+](C)C)cs2)cs1)[C@@H](C)O)[C@@H](O[C@@H]1O[C@@H](CO)[C@@H](O)[C@H](O)[C@@H]1O[C@H]1O[C@H](CO)[C@@H](O)[C@H](OC(N)=O)[C@@H]1O)c1cnc[nH]1` [Bleomycin sulfate], the inhibition at 100 µM worked out at 0%.

For `O=C1c2c(O)ccc(O)c2C(=O)c2c(NCCNCCO)ccc(NCCNCCO)c21` [Mitoxantrone 2HCl], the inhibition at 100 µM is 74.8%.

Consider `O=S(=O)(O)Oc1ccc(C(c2ccc(OS(=O)(=O)O)cc2)c2ccccn2)cc1` [Sodium Picosulfate], for which the inhibition at 100 µM was 1.51%.

Turning to `CCCCOc1ccc(OCCCN2CCOCC2)cc1` [Pramoxine HCl], the inhibition at 100 µM came to 25.7%.

`CC(OC(=O)OC1CCCCC1)OC(=O)C1=C(CSc2nnnn2CCN(C)C)CS[C@@H]2[C@H](NC(=O)Cc3csc(N)n3)C(=O)N12` (stereo partly shown) [Cefotiam Hexetil Hydrochloride]: the inhibition at 100 µM is 0%.

Turning to `CC(C(=O)O)c1ccc(C(=O)c2cccs2)cc1` (stereo not shown) [Suprofen], the inhibition at 100 µM is 18%.

`NC(=O)[C@@H](CCC(F)(F)F)N(Cc1ccc(-c2ncon2)cc1F)S(=O)(=O)c1ccc(Cl)cc1` [Avagacestat (BMS-708163)]: the inhibition at 100 µM is 0%.

Regarding `O=c1ccn([C@@H]2O[C@H](CO)[C@@H](O)[C@H]2O)c(=O)[nH]1` [Uridine], the inhibition at 100 µM was 0%.

For the compound `CCCC(=O)O[C@]1(C(=O)COC(C)=O)CC[C@H]2[C@@H]3C[C@H](F)C4=CC(=O)C=C[C@]4(C)[C@@]3(F)[C@@H](O)C[C@@]21C` [Difluprednate], the inhibition at 100 µM was found to be 22.2%.

Turning to `Cc1[nH]c(=O)c(C#N)cc1-c1ccc2nccn2c1` [Olprinone], the inhibition at 100 µM came out at 0%.

For `CC(C)(C(=O)c1cccnc1)c1cccnc1` [Metyrapone], the inhibition at 100 µM is 5.33%.

As for `Cc1cc(N2CCN([C@@H]3CN[C@H](C(=O)N4CCSC4)C3)CC2)n(-c2ccccc2)n1` [Teneligliptin hydrobromide], the inhibition at 100 µM turned out to be 6.56%.

Regarding `O=C(O)CCNC(=O)c1ccccc1` [Betamipron], the inhibition at 100 µM worked out at 7.69%.

For `CC(C(=O)O)c1ccc(-c2ccccc2)c(F)c1` (stereo not shown) [Flurbiprofen], the inhibition at 100 µM was found to be 2.76%.

As for `O=c1oc2cc(O)ccc2s1` [Tioxolone], the inhibition at 100 µM was found to be 23.8%.

With `Clc1ccc(C(c2ccccc2Cl)C(Cl)Cl)cc1` (stereo not shown) [Mitotane], the inhibition at 100 µM stood at 46.2%.

For the compound `Nc1ncn([C@@H]2O[C@H](CO)[C@@H](O)[C@H]2O)c(=O)n1` [Azacitidine], the inhibition at 100 µM was determined as 32.2%.

Consider `Cc1cccc(C)c1OCC(=O)N[C@@H](Cc1ccccc1)[C@@H](O)C[C@H](Cc1ccccc1)NC(=O)[C@H](C(C)C)N1CCCNC1=O` [Lopinavir], for which the inhibition at 100 µM was determined as 0%.

Take `C=CCc1cc(OC)c(O)c(C(=O)NCCO)c1` [Alibendol]: the inhibition at 100 µM came to 15.2%.

For `O=C(O[C@@H]1C[C@@H]2C[C@H]3C[C@H](C1)N2CC3=O)c1c[nH]c2ccccc12` [Dolasetron], the inhibition at 100 µM is 7.05%.
